Results from patent publication US12065443B2, “Compounds and pharmaceutical compositions thereof for the treatment of diseases” (priority 2017, dated 2024).

Tests used:
[1] = tested on: LPS triggered IL-10 secretion in monocyte-derived macrophages (MdM); assay: MdM assay: LPS-triggered IL-10 (ELISA); type: cell-based, human; conditions: maximal fold change vs LPS only, median across assays
Method: This assay evaluates illustrative compounds of the invention for their inhibition of LPS-induced TNFα and LPS triggered IL-10 secretion in monocyte-derived macrophages.
PBMCs are isolated from human blood samples (buffycoats). The buffy coat is aseptically transferred into a 50 mL Falcon tube, and diluted 1/2 in PBS. Falcon tubes are filled with 20 mL Lymphoprep™, on top of which 25 mL of the buffy coat is carefully added, tubes are centrifuged for 35 min at 400 g in temperature controlled centrifuge, without brake, at 25° C. PBMCs are aspirated from the white interface layer between sample and Lymphoprep™. PBMCs are washed five times in PBS.
PBMCs are centrifuged at 300×g for 10 min and resuspended at a density of 1.0E07 cells/80 μL Miltenyi buffer (PBS, pH 7.4, 1% FBS, 2 mM EDTA).
Starting from this point of the protocol all steps are performed on ice. 20 μL of CD14+ micro-beads are added per 1.0E07 cells, the tube is mixed and incubated for 15 min in the fridge at 4° C. Cell suspension volume is adjusted to total volume of 100 mL using Miltenyi buffer, mixed gently and subsequently centrifuged for 10 min at 300× g. Supernantant is discarded and cell pellet is resuspended in 12 mL of Miltenyi buffer.
Four LS columns are placed in the MACS Separator (magnet) from Miltenyi Biotec, and are prewet by rinsing with 3 mL of MACS buffer per column. Three mL of cell suspension is added onto the column (max 1*10^8 of labelled cells/column), and columns are subsequently washed 3 times with 3 mL of Miltenyi buffer.
The columns are removed from the magnets, and 5 mL of Miltenyi buffer are added to the column to flush out the CD14+ fraction by pushing the plunger into the column. The flushed fractions are collected in a fresh 50 mL Falcon and volume is adjusted to 30 mL using Miltenyi buffer, cells are centrifuged for 10 min at 300× g. The obtained cell pellet is resuspended in 10 mL RPMI w/o FBS, and cell density is determined using a hematologic analyser (Sysmex XS-500i).
On day 10, MdMs are triggered and compound is added.
A compound dilution plate is made in 100% DMSO by 3-fold dilution of 10 mM stock solution. An intermediate dilution plate (10× final concentration) is made by diluting the compound dilution plate 50-fold in RPMI medium.
Medium is carefully removed from cell plates using multichannel pipette, and replaced by 80 μL fresh medium. 10 μL of the 10× final concentration compound is added to the cells and incubated for 1 hour at 37° C. before addition of trigger. No trigger conditions/trigger conditions are spiked with equal final DMSO concentrations of 0.2% DMSO. 10 μL of 10×LPS (final conc. 200 ng/mL) solution are added to all wells except for the ‘no trigger wells’ where 10 μL medium is added. Supernatant is collected after 2 h (IL-10 determination) and after 20 h (TNFα determination) of LPS triggering.
Plates are washed three times with PBST, where after 100 μL of Strep-HRP conjugate (0.5 μg/mL final concentration diluted in dilution buffer) is added. Plates are incubated in the dark, at 37° C. for 30 min. Plates are washed three times with PBST. […] 100 μL of substrate solution is added to each well and incubated until brilliant blue color develops. The reaction is stopped by adding 50 μL of 1 M H2SO4, after which absorbance is measured at 450 nm on the SpectraMax i3, Molecular Devices.
To quantify these inductions fold changes (FC) compared to ‘LPS only’ are calculated for each concentration tested and the maximal FC is calculated (IL-10 FCmax):
[formula] wherein ABS=Absorbance measured at 450 nm.
The median maximal FC for test compounds across two or more assays is reported (IL-10FCmax median).

[2] = tested on: LPS-induced TNFα secretion in monocyte-derived macrophages (MdM); assay: MdM assay: LPS-triggered TNFα (ELISA); type: cell-based, human; conditions: Homo sapiens, Macrophage, LPS-triggered TNFα inhibition
How it was run: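 Human CD14+ monocytes isolated from buffy-coat PBMCs by magnetic beads, differentiated to macrophages; on day 10 compound preincubated 1 h at 37 °C, then LPS 200 ng/mL added (0.2% DMSO). Supernatant taken after 20 h; TNFα quantified by sandwich ELISA against standard curve.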

SIK1 = molecular target: T1, SIK1 (Homo sapiens, UniProt P57059); assay: biochemical; conditions: 33P radioactive SIK kinase assay, AMARA peptide, 10 μM ATP; read-out: SIK1 IC50
T1 construct: purchased Carna Biosciences 02-131
T1 sequence (P57059 whole entry): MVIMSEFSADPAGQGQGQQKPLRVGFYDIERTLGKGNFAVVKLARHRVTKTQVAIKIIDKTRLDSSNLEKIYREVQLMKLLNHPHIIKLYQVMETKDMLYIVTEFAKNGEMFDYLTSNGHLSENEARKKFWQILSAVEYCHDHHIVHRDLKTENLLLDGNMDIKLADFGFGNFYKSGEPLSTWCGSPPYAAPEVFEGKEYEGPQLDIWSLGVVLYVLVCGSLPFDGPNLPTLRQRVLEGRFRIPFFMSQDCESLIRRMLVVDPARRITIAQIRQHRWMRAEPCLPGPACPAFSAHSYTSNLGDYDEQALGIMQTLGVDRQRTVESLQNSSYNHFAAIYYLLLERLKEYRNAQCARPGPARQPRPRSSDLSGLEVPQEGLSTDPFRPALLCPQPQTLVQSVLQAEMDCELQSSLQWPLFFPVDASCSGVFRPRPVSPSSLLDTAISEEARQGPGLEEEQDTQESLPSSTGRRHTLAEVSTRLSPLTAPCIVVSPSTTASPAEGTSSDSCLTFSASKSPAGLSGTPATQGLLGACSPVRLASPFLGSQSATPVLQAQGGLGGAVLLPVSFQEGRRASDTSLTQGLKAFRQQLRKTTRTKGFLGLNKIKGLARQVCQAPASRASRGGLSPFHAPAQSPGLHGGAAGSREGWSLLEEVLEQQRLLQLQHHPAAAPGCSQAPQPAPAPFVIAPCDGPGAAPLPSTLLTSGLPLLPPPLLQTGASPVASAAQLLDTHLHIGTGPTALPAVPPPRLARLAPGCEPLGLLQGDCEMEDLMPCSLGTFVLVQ
How it was run: (§1)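 AMARA peptide phosphorylation by SIK1–3 is quantified through ^33P uptake from a labeled/unlabeled ATP blend. Staurosporine at 10 μM final defines full inhibition, 1% DMSO the uninhibited signal. Quench uses phosphoric acid; counting follows filter capture.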

SIK2 = molecular target: T2, SIK2 (Homo sapiens, UniProt Q9H0K1); assay: biochemical; conditions: 33P radioactive SIK kinase assay, AMARA peptide, 10 μM ATP
T2 construct: purchased ThermoFisher Scientific PV4792
T2 sequence (Q9H0K1 whole entry): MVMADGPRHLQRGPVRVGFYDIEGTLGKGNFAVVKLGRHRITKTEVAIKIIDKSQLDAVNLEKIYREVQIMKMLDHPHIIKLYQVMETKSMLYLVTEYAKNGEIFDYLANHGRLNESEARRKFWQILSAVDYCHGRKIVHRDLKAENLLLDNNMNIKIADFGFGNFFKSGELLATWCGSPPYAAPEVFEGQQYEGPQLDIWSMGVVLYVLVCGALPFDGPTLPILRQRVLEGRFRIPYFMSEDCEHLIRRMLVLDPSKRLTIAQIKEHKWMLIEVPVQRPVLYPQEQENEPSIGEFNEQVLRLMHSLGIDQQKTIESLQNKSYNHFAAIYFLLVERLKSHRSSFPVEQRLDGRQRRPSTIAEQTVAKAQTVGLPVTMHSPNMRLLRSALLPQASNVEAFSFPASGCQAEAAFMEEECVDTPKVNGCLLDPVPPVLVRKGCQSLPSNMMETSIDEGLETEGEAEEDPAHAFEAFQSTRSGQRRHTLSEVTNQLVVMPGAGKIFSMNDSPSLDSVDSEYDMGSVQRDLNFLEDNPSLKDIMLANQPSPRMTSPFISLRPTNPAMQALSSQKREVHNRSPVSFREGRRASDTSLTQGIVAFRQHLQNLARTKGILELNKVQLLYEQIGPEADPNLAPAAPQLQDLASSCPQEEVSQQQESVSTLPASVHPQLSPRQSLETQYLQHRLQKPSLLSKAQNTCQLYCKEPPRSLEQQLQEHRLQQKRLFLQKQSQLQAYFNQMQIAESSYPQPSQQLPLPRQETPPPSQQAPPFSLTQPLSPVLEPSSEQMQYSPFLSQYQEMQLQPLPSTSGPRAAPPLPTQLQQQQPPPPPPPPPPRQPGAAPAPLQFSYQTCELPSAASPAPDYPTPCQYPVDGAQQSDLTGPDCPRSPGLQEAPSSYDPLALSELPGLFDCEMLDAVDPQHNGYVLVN
How it was run: as §1

SIK3 = molecular target: T3, SIK3 (Homo sapiens, UniProt Q9Y2K2); assay: biochemical
T3 construct: purchased SignalChem S12-11G-100
T3 sequence (Q9Y2K2 whole entry): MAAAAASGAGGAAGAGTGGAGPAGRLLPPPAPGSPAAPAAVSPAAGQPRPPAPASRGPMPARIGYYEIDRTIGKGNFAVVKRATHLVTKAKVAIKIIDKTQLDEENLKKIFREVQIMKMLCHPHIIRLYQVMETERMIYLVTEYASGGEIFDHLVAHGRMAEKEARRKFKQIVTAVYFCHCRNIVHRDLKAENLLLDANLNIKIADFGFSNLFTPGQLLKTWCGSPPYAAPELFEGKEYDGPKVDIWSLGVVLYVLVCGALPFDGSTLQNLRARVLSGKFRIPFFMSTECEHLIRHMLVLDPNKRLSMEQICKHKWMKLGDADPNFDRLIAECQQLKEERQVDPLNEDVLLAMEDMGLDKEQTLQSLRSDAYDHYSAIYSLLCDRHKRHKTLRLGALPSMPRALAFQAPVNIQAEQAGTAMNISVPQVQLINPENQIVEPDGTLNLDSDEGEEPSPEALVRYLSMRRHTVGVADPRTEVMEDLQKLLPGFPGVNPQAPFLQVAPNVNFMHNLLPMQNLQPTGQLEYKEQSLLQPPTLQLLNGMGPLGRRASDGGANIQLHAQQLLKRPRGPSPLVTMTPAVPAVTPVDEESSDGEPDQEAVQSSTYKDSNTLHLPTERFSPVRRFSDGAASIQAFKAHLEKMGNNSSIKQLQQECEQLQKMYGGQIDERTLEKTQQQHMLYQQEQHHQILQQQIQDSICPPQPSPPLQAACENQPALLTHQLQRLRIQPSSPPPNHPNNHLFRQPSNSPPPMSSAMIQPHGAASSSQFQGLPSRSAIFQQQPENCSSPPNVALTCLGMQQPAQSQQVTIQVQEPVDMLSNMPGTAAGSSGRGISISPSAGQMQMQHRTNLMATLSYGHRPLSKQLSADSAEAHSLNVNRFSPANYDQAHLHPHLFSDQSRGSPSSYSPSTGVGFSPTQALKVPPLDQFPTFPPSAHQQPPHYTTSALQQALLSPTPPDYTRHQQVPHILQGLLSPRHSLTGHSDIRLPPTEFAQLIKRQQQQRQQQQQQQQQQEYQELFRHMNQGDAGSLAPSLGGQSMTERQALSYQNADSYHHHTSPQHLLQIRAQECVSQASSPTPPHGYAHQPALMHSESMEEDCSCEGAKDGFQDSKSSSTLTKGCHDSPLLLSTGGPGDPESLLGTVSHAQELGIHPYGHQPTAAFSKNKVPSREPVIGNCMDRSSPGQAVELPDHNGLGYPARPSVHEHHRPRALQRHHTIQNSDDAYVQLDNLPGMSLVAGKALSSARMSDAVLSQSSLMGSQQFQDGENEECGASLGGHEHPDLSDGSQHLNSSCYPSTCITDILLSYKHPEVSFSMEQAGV
How it was run: as §1

COc1cc(-n2cnc3cc(-c4cnn(C)c4)ccc32)cc(OC)c1C(=O)N[C@@H]1C[C@@H]1F [compound 144, N-[(1R,2S)-2-fluorocyclopropyl)-2,6-dimethoxy-4-[5-(1-methylpyrazol-4-yl)benzimidazol-1-yl]benzamide]
IL-10 FCmax median [1]: ++ (>1.5-4.5)
EC50 [2]: 0.1 to 100 nM
IC50 (SIK1): 0.01 to 10 nM
IC50 (SIK2): 0.01 to 10 nM
IC50 (SIK3): 0.01 to 10 nM

CCn1cc(-c2ccc3c(c2)ncn3-c2cc(OC)c(C(=O)NCC#N)c(OC)c2)cn1 [compound 50, N-(cyanomethyl)-4-[5-(1-ethylpyrazol-4-yl)benzimidazol-1-yl]-2,6-dimethoxy-benzamide]
IL-10 FCmax median [1]: ++ (>1.5-4.5)
EC50 [2]: 100 to 1000 nM
IC50 (SIK1): 10 to 100 nM
IC50 (SIK2): 0.01 to 10 nM
IC50 (SIK3): 0.01 to 10 nM

CCCNC(=O)c1c(OC)cc(-n2cnc3cc(-c4cnn(CC)c4)ccc32)cc1OC [compound 22, 4-[5-(1-ethylpyrazol-4-yl)benzimidazol-1-yl]-2,6-dimethoxy-N-propyl-benzamide]
IL-10 FCmax median [1]: ++ (>1.5-4.5)
EC50 [2]: 100 to 1000 nM

COc1cc(-n2cnc3cc(-c4cnn(CCN5CCOCC5)c4)ccc32)cc(OC)c1C(=O)NCC(F)(F)F [compound 41, 2,6-dimethoxy-4-[5-[1-(2-morpholinoethyl)pyrazol-4-yl]benzimidazol-1-yl]-N-(2,2,2-trifluoroethyl)benzamide]
IL-10 FCmax median [1]: ++ (>1.5-4.5)
EC50 [2]: 100 to 1000 nM
IC50 (SIK1): 10 to 100 nM
IC50 (SIK2): 0.01 to 10 nM
IC50 (SIK3): 0.01 to 10 nM

CCNC(=O)c1c(OC)cc(-c2cnc3cc(-c4cnn(C5CCN(C)CC5)c4)ccn23)cc1OC(F)F [compound 148, 2-(difluoromethoxy)-N-ethyl-6-methoxy-4-[7-[1-(1-methyl-4-piperidyl)pvrazol-4-yl]imidazo[1,2-a]pyridin-3-yl]benzamide]
IL-10 FCmax median [1]: ++ (>1.5-4.5)
EC50 [2]: 0.1 to 100 nM
IC50 (SIK1): 0.01 to 10 nM
IC50 (SIK2): 0.01 to 10 nM
IC50 (SIK3): 0.01 to 10 nM

COc1cc(-c2cnc3cc(-c4cnn(CC(=O)O)c4)ccn23)cc(OC)c1C(=O)NCC(F)(F)F [Cpd 228, 2-[4-[3-[3,5-dimethoxy-4-(2,2,2-trifluoroethyl-carbamoyl)phenyl]imidazo[1,2-a]pyridin-7-yl]pyrazol-1-yl]acetic acid]
IL-10 FCmax median [1]: ++ (>1.5-4.5)
EC50 [2]: > 5000 nM
IC50 (SIK1): 0.01 to 10 nM
IC50 (SIK2): 0.01 to 10 nM
IC50 (SIK3): 0.01 to 10 nM

CCNC(=O)c1c(OC)cc(-n2cnc3cc(-c4cnn(CCN5CCOCC5)c4)ccc32)cc1OC [compound 4, N-ethyl-2,6-dimethoxy-4-[5-[1-(2-morpholinoethyl)pyrazol-4-yl]benzimidazol-1-yl]benzamide]
IL-10 FCmax median [1]: ++ (>1.5-4.5)
EC50 [2]: 1000 to 5000 nM
IC50 (SIK1): 10 to 100 nM
IC50 (SIK2): 10 to 100 nM
IC50 (SIK3): 10 to 100 nM

COc1cc(-c2cnc3cc(-c4cnn(C)c4)ccn23)cc(OC)c1C(=O)N1CC(C#N)C1 [compound 209, 1-[2,6-dimethoxy-4-[7-(1-methylpyrazol-4-yl)imidazo[1,2-a]pyridin-3-yl]benzoyl)azetidine-3-carbonitrile]
IL-10 FCmax median [1]: ++ (>1.5-4.5)
EC50 [2]: 100 to 1000 nM
IC50 (SIK1): 0.01 to 10 nM
IC50 (SIK2): 0.01 to 10 nM
IC50 (SIK3): 0.01 to 10 nM

CCNC(=O)c1c(OC)cc(-c2cnn3cc(-c4cnn(CC)c4)cnc23)cc1OC [compound 9, N-ethyl-4-[6-(1-ethylpyrazol-4-yl)pyrazolo[1,5-a]pyrimidin-3-yl]-2,6-dimethoxy-benzamide]
IL-10 FCmax median [1]: ++ (>1.5-4.5)
EC50 [2]: 100 to 1000 nM
IC50 (SIK1): 10 to 100 nM
IC50 (SIK2): 10 to 100 nM
IC50 (SIK3): 10 to 100 nM

COc1cc(-n2cnc3cc(-c4cnn(C)c4)ccc32)cc(OC(F)F)c1C(=O)NC1CC1 [Cpd 53, N-cyclopropyl-2-(difluoromethoxy)-6-methoxy-4-[5-(1-methylpyrazol-4-yl)benzimidazol-1-yl]benzamide]
IL-10 FCmax median [1]: ++ (>1.5-4.5)

COc1cc(-n2cnc3cc(-c4cnc(C)[nH]4)ccc32)cc(OC)c1C(=O)NCC(F)(F)F [compound 152, 2,6-dimethoxy-4-[5-(2-methyl-1H-imidazol-5-yl)benzimidazol-1-yl]-N(2,2,2-trifluoroethyl)benzamide]
EC50 [2]: 1000 to 5000 nM
IC50 (SIK1): 10 to 100 nM
IC50 (SIK2): 10 to 100 nM
IC50 (SIK3): 10 to 100 nM

COC(=O)Cn1cc(-c2ccn3c(-c4cc(OC)c(C(=O)NCC(F)(F)F)c(OC)c4)cnc3c2)cn1 [Cpd 236, methyl 2-[4-[3-[3,5-dimethoxy-4-(2,2,2-trifluoroethyl-carbamoyl)phenyl]imidazo[1,2-a]pyridin-7-yl]pyrazol-1-yl]acetate]
EC50 [2]: 0.1 to 100 nM
IC50 (SIK1): 0.01 to 10 nM
IC50 (SIK2): 0.01 to 10 nM
IC50 (SIK3): 0.01 to 10 nM

COc1cc(-n2cnc3cc(-c4cnn(C)c4)ccc32)cc(OC)c1C(=O)N[C@H](C)C(F)(F)F [compound 58, 2,6-dimethoxy-4-[5-(1-methylpyrazol-4-yl)benzimidazol-1-yl]-N-[(1R)-2,2,2-trifluoro-1-methyl-ethyl]benzamide]
EC50 [2]: 100 to 1000 nM
IC50 (SIK1): 10 to 100 nM
IC50 (SIK2): 10 to 100 nM
IC50 (SIK3): 10 to 100 nM

COc1cc(-c2cnc3cc(-c4cnn(C(C)C(=O)O)c4)ccn23)cc(OC)c1C(=O)NCC(F)(F)F (centres unmarked) [Cpd 254, 2-[4-[3-[3,5-dimethoxy-4-(2,2,2-trifluoroethyl-carbamoyl)phenyl]imidazo[1,2-a]pyridin-7-yl]pyrazol-1-yl]propanoic acid]
EC50 [2]: > 5000 nM
IC50 (SIK1): 0.01 to 10 nM
IC50 (SIK2): 0.01 to 10 nM
IC50 (SIK3): 0.01 to 10 nM

COc1cc(-n2cnc3cc(-c4cn(C)cn4)ccc32)cc(OC)c1C(=O)NCC(F)(F)F [Cpd 137, 2,6-dimethoxy-4-[5-(1-methylimidazol-4-yl)benzimidazol-1-yl]-N-(2.2,2-trifluoroethyl)benzamide]
EC50 [2]: 100 to 1000 nM
IC50 (SIK1): 10 to 100 nM
IC50 (SIK2): 0.01 to 10 nM
IC50 (SIK3): 10 to 100 nM

COc1cc(-c2cnc3cc(-c4cnn(C(C)C(=O)OC(C)(C)C)c4)ccn23)cc(OC)c1C(=O)NCC(F)(F)F (centres unmarked) [compound 243, tert-butyl 2-[4-[3-[3,5-dimethoxy-4-(2,2,2-trifluoroethyl-carbamoyl)phenyl]imidazol[1,2-a]pyridin-7-yl]pyrazol-1-yl]propanoate]
EC50 [2]: 0.1 to 100 nM
IC50 (SIK1): 0.01 to 10 nM
IC50 (SIK2): 0.01 to 10 nM
IC50 (SIK3): 0.01 to 10 nM

COc1cc(-n2cnc3cc(-c4cnn(C)c4)ccc32)cc(OC)c1C(=O)NC1CC(F)(F)C1 [compound 125, N-(3,3-difluorocyclobutyl)-2,6-dimethoxy-4-[5-(1-methylpyrazol-4-yl)benzimidazol-1-yl]benzamide]
EC50 [2]: 100 to 1000 nM
IC50 (SIK1): 10 to 100 nM
IC50 (SIK2): 10 to 100 nM
IC50 (SIK3): 10 to 100 nM
